Experimental data taken from US20140303092A1 (CHIMERIX, INC., priority 2011, published 2014).
Values joined by “and” are separate entries in the source; they are usually repeats but may differ in a detail not shown here. Identical values can stand only once.

Test system: CMV
Assay: Study HDP-CDV-201: prevention or control of CMV infection in R+ HSCT recipients (efficacy)
Format: in vivo, human (adult allogeneic HSCT recipients)
Method: The clinical study of the current invention (HDP-CDV-201) was a 9-11 week randomized, placebo-controlled, double-blind, dose-escalation study (40 mg weekly [QW], 100 mg QW, 200 mg QW, 200 mg twice-weekly [BIW], and 100 mg BIW) of HDP-CDV for the prevention of CMV infection post-HCT. Treatment was initiated at the time of engraftment and continued until Week 13 post-HCT. HDP-CDV, at various doses, was active and well tolerated in the prevention CMV infection or disease.
Clinical Studies of HDP-CDV were performed and described in detail in the following Examples. For example, HDP-CDV-201 is a placebo-controlled, dose-escalating trial in HSCT CMV (R+) recipients, evaluating the ability of HDP-CDV to prevent or control CMV infection was carried out. Five cohorts were established in which participants or subjects received either placebo or the HDP-CDV orally, in doses ranging from 40 mg weekly (QW) to 200 mg twice weekly (BIW). Subjects who were post-HSCT were enrolled at the time of engraftment and randomized to HDP-CDV or placebo (3 to 1 ratio) and received blinded therapy until approximately 100 day post-transplantation. HDP-CDV doses were 40 mg QW, 100 mg QW, 200 mg QW, 200 mg BIW and 100 mg BIW. Escalation to the next dose was decided by the data monitoring committee after review of the safety data from the previous Cohort. Subjects who developed CMV disease or CMV infection requiring pre-emptive therapy with local standard of care were discontinued from blinded therapy and followed for 4 weeks. Subjects who completed treatment with blinded therapy were followed for 8 weeks post-therapy.
The primary endpoint was defined as the incidence of CMV disease at any time during treatment or CMV DNAemia≧200 copies/mL at the end of treatment. All subjects who received at least one dose of drug/placebo and had at least one efficacy evaluation post baseline were included in the primary analysis, regardless of their CMV DNAemia status (negative or positive) at baseline (mITT population). Results for the pooled HDP-CDV Cohorts and for each Cohort separately were analyzed versus that for pooled placebo.
The primary efficacy measure for this study was treatment failure, defined as the occurrence of CMV infection, defined as CMV DNAemia>200 copies/mL at the End of Treatment or diagnosis of CMV disease at any time during the treatment period. For the analysis, the following definitions apply:
For subjects who completed the treatment phase of the study, the End of Treatment was defined as the latest assessment from date of the last dose of study drug and up to 7 days for QW dosing, or the date of the last dose of study drug and up to 4 days for BIW dosing. For subjects who discontinued during the treatment phase of the study, the End of Treatment was defined as the date of the last dose of study drug.
The time to event was defined as the period between FDD and date of first occurrence of the event of interest (inclusive). The events included onset of CMV DNAemia, onset of CMV disease, and discontinuation because of excluded anti-CMV medications. Time to event/onset was derived as (the event/onset date—FDD)+1.
As detailed in the Statistical Analysis Plan, a modified CMV stratum was defined prior to conducting the statistical analysis based upon polymerase chain reaction (PCR) results from the central laboratory. If any positive CMV DNA value in plasma was collected before the first dose of study drug (including Screening, Pre-dose, (combined Screening/Pre-dose), CMV for stratification, and FDD), then the subject was placed into the modified CMV positive (≧100 copies/mL) stratum, otherwise the subject was in the modified CMV negative stratum. […]

[1] = 200 mg QW, modified CMV negative stratum
[2] = 200 mg QW, whole study period, CMV DNA negative at baseline
[3] = All HDP-CDV, CMV modified strata: negative
[4] = All HDP-CDV, CMV modified strata: positive

## CCCCCCCCCCCCCCCCOCCCOP(=O)(O)COC(CO)Cn1ccc(N)nc1=O (stereo not drawn) [HDP-CDV]
200 mg QW, mITT
  Subjects Receiving Antiviral Therapy and/or had CMV disease: 7 (17.9%) subjects (%)
  Subjects without a CMV event: 32 (82.1%) subjects (%)
  Time to Antiviral Therapy, Median: 40.0 days
200 mg QW, mITT, missing=infection
  Rate of CMV Disease or End of Treatment CMV Infection (≧200 copies/ml): 31% and 30.8%
200 mg QW, mITT, post hoc
  Rate of CMV DNAemia ≧1000 copies/mL during the treatment period: 18% and 17.9%
200 mg QW, mITT, censored values not included
  Time to Antiviral Therapy, Mean: 38.1 days
[1]
  % CMV Event Rate: Incidence of CMV DNAemia >100 copies/mL During Treatment (Fisher analysis, ref 14.3.3.2.1): 7 (24.1%) subjects (%)
  % CMV Event Rate: Incidence of CMV DNAemia ≧1,000 copies/mL at any time during treatment: 2 (6.9%) subjects (%)
  Combined CMV event rate (CMV disease, viremia requiring treatment, viremia ≧1000 copies/mL): 13.8%
  Subjects Who Had CMV-related Event (CMV disease, CMV DNAemia ≧1,000 c/mL or initiation of anti-CMV treatment): 4 (13.8%) subjects (%)
  Subjects without a CMV-related event: 25 (86.2%) subjects (%)
200 mg QW, plasma CMV DNA negative at baseline, mITT
  Developed CMV DNAemia (≧100 copies/mL) during the treatment period: 7 (23.3%) N(%)
200 mg QW, treatment period, CMV DNA negative at baseline
  Time to CMV DNAemia (≧100 copies/mL), Median: 15.0 days
200 mg QW, treatment period, CMV DNA negative at baseline, censored values not included
  Time to CMV DNAemia (≧100 copies/mL), Mean: 22.6 days
[2]
  Number of Subjects who had CMV DNAemia (≧100 copies/mL) by the end of study: 11
  Time to CMV DNAemia (≧100 copies/mL), Mean: 36.3 days
  Time to CMV DNAemia (≧100 copies/mL), Median: 36.0 days
8 weeks follow-up
  subjects with emergence of viremia between end of treatment and end of treatment-free follow-up: less than 10%
All HDP-CDV (N = 133), CMV modified strata: negative
  % CMV Event Rate, primary: CMV DNAemia >200 copies/mL at end of treatment OR CMV disease during treatment: 21 (15.8%) subjects (%)
All HDP-CDV (N = 162), aGVHD strata: negative
  % CMV Event Rate, primary: CMV DNAemia >200 copies/mL at end of treatment OR CMV disease during treatment: 41 (25.3%) subjects (%)
All HDP-CDV (N = 171), mITT
  % CMV Event Rate, primary: CMV DNAemia >200 copies/mL at end of treatment OR CMV disease during treatment: 43 (25.1%) subjects (%)
[3]
  Difference (HDP-CDV minus placebo) in infection rate: −14.0%
  Difference (HDP-CDV minus placebo) in rate of CMV DNAemia ≧1,000 copies/ml: −25.9%
  Rate of CMV DNAemia ≧1,000 copies/ml during the treatment period: 6.0%
  Rate of CMV Disease or End of Treatment CMV Infection: 15.8%
[4]
  Difference (HDP-CDV minus placebo) in rate of CMV DNAemia ≧1,000 copies/mL: −28.1%
  Rate of CMV DNAemia ≧1,000 copies/mL during the treatment period: 55.3%
All HDP-CDV, aGVHD randomization strata: negative
  Rate of CMV Disease or End of Treatment CMV Infection: 25.3%
All HDP-CDV, aGVHD strata: negative
  Difference (HDP-CDV minus placebo) in infection rate: −6.8%
All HDP-CDV, mITT
  Difference (HDP-CDV minus placebo) in rate of CMV DNAemia ≧1000 copies/mL: −25.4%
  Difference (HDP-CDV minus placebo) in rate of CMV disease or end of treatment CMV infection: −12.1%
All HDP-CDV, mITT, post hoc
  Rate of CMV DNAemia ≧1000 copies/mL during the treatment period: 17.0%
All HDP-CDV, modified CMV negative stratum
  % CMV Event Rate: Incidence of CMV DNAemia ≧1,000 copies/mL at any time during treatment: 8 (6.0%) subjects (%)
All cohorts combined, aGVHD positive strata (2 of 9)
  CMV disease/infection rate (primary endpoint): 22.2%
Cohorts 100 mg QW, 200 mg QW and 100 mg BIW
  CMV DNAemia rate over whole study period: ~35%
Combined 100 mg QW, 200 mg BIW, 100 mg BIW (N = 86), CMV modified strata: negative
  % CMV Event Rate, primary: CMV DNAemia >200 copies/mL at end of treatment OR CMV disease during treatment: 8 (9.3%) subjects (%)
Exploratory analysis, cohorts that met endpoint (200 mg QW, 200 mg BIW, 100 mg BIW combined), mITT
  Rate of CMV DNAemia ≧1000 copies/mL during the treatment period: 11% and 10.9%
Exploratory analysis, cohorts that met endpoint, mITT
  Difference (HDP-CDV minus placebo) in rate of CMV DNAemia ≧1000 copies/mL: −23.2%
Higher doses (≧200 mg QW)
  Incidence of composite endpoint (initiation of anti-CMV therapy or CMV disease or CMV DNAemia >1,000 copies/mL): less than 15%
Pooled HDP-CDV, mITT
  Incidence of CMV disease or initiation of anti-CMV preemptive therapy: 22% and 21.6%
Across doses of 100 mg QW and higher
  overall rates of CMV DNAemia detectable at any time during treatment: 17.4 to 23.8%
Doses of 100 mg QW or higher (4/146)
  subjects who developed CMV disease: 2.7%
Doses of 200 mg per week or higher (1/119)
  subjects who developed CMV disease: 0.8%
Doses ≧100 mg QW combined, aGVHD positive strata (1 out of 7)
  CMV disease/infection rate (primary endpoint): 14.3%
Pooled 100 mg QW, 200 mg BIW, 100 mg BIW, CMV negative stratum (8 of 86)
  failure rate, exploratory endpoint: 9%
